Laboratory results from publication PMC6471485, “Selective Inhibitors of a Human Prolyl Hydroxylase (OGFOD1) Involved in Ribosomal Decoding” (Chemistry (Weinheim an Der Bergstrasse, Germany), 2019).
“Also recorded” adds a separate entry of the source.

How the values were obtained:
OGFOD1 = target: T1, OGFOD1 (Homo sapiens, UniProt Q8N543); experiment: 2OG displacement from OGFOD1 by CPMG-edited 1H NMR; format: binding; conditions: 10 µM 2OG, 10 µM OGFOD1, 70 µM inhibitor
T1 sequence (Q8N543 1-542): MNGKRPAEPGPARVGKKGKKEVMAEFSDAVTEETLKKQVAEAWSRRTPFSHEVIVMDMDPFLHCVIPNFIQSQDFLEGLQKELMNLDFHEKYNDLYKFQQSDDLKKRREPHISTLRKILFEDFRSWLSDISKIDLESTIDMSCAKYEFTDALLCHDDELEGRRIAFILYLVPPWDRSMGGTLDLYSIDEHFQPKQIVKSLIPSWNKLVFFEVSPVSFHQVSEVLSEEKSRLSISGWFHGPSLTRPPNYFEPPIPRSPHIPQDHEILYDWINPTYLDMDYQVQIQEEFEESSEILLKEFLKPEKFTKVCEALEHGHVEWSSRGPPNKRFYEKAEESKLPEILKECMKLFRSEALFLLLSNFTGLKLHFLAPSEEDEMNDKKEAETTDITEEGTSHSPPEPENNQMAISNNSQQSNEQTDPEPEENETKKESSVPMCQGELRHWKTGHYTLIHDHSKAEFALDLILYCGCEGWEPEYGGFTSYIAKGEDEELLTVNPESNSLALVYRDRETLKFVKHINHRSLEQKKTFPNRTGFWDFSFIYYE
Description: total echo time of 40 ms, a relaxation delay of 2 s, with 256 scans. Water suppression was achieved by presaturation. Samples contained 30 µM apo-PHD2181-426 or OGFOD1, supplemented with 60 µM Zn(II), 30 µM of inhibitor, all in 50 mM Tris-d11, pH 7.5, 10 % D2O, […]
wLOGSY Binding Experiments: For water-ligand observed gradient spectroscopy (wLOGSY) analyses, typical experimental parameters were the following: mixing time, 1 s; relaxation delay, 2 s; number of transients, 512. Solvent excitation was achieved using a 16-ms 180° selective rectangular shape pulse with 1,000 points (Squa100.1000) set at the H2O frequency. […]
Competition Experiments by 2OG Displacement: 2OG displacement assays[12] were performed using CPMG-edited 1H spectra. […] The 2OG methylene resonance at 2.35 ppm was monitored. […]
HeLa cells were cultured in DMEM media supplemented with 10 % fetal bovine serum, 4 mM L-glutamine, 100 U/mL penicillin, and 100 µg/mL streptomycin. […] Cell extracts were analyzed by SDS-PAGE, electroblotted onto PVDF membranes (Millipore) and probed with anti-HIF-1α antibody (clone 54, BD Transduction Laboratories) at 1:1000 dilution for 1 h at room temperature. […] Target proteins were detected with SuperSignal Chemiluminescent […]
Figure S15. Single-concentration qualitative 2OG displacement as monitored by CPMG-edited 1H NMR spectroscopy. […]

PHD2181-426 = target: T2, PHD2181-426 (Homo sapiens, UniProt Q9GZT9); experiment: wLOGSY NMR binding experiment with PHD2; conditions: 400 µM inhibitor, 50 µM PHD2
T2 construct: 181-426 (1 µM) was
T2 sequence (Q9GZT9 181-426 limits assumed): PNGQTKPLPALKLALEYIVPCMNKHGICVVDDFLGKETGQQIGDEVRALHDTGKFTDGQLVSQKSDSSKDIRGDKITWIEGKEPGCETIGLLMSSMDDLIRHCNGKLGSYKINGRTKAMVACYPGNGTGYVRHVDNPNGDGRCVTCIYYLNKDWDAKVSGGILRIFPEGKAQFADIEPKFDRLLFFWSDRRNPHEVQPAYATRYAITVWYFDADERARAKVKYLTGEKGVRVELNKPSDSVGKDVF

Row | SMILES | displacement of bound 2OG from OGFOD1, in words (OGFOD1) | binding to PHD2 by wLOGSY NMR, in words (PHD2181-426; listed as CCT4) | binding to PHD2 by wLOGSY NMR, in words (PHD2181-426; listed as CCT3)
1 | Cn1c(O)c(C(=O)CCc2cccs2)c(=O)n(C)c1=O [compound 42] | capable of displacing bound 2OG from the active site of OGFOD1 | weaker; also recorded: only weak binding to PHD2 | 
2 | Cn1c(O)c(C(=O)CCc2ccccc2)c(=O)n(C)c1=O [compound 26] | capable of displacing bound 2OG from the active site of OGFOD1 |  | weaker; also recorded: only weak binding to PHD2
